Measurements reported in ChEMBL document CHEMBL4421734, “Means and methods for treatment of early-onset parkinson''s disease” (2016).
Activity calls are given as the source filed them. No cut-off for these calls is given here.

Key:
[1] = target: 3-oxoacyl-[acyl-carrier-protein] reductase (Drosophila melanogaster) (UniProt B7Z001); experiment: Inhibition of FASN in one day old PINK1 mutant containing Drosophila melanogaster assessed as rescue of defective flight at 0.1 to 300 uM dosed with food incubated for 72 hrs; type: organism-based
3-oxoacyl-[acyl-carrier-protein] reductase (Drosophila melanogaster), sequence (B7Z001 as listed by the source): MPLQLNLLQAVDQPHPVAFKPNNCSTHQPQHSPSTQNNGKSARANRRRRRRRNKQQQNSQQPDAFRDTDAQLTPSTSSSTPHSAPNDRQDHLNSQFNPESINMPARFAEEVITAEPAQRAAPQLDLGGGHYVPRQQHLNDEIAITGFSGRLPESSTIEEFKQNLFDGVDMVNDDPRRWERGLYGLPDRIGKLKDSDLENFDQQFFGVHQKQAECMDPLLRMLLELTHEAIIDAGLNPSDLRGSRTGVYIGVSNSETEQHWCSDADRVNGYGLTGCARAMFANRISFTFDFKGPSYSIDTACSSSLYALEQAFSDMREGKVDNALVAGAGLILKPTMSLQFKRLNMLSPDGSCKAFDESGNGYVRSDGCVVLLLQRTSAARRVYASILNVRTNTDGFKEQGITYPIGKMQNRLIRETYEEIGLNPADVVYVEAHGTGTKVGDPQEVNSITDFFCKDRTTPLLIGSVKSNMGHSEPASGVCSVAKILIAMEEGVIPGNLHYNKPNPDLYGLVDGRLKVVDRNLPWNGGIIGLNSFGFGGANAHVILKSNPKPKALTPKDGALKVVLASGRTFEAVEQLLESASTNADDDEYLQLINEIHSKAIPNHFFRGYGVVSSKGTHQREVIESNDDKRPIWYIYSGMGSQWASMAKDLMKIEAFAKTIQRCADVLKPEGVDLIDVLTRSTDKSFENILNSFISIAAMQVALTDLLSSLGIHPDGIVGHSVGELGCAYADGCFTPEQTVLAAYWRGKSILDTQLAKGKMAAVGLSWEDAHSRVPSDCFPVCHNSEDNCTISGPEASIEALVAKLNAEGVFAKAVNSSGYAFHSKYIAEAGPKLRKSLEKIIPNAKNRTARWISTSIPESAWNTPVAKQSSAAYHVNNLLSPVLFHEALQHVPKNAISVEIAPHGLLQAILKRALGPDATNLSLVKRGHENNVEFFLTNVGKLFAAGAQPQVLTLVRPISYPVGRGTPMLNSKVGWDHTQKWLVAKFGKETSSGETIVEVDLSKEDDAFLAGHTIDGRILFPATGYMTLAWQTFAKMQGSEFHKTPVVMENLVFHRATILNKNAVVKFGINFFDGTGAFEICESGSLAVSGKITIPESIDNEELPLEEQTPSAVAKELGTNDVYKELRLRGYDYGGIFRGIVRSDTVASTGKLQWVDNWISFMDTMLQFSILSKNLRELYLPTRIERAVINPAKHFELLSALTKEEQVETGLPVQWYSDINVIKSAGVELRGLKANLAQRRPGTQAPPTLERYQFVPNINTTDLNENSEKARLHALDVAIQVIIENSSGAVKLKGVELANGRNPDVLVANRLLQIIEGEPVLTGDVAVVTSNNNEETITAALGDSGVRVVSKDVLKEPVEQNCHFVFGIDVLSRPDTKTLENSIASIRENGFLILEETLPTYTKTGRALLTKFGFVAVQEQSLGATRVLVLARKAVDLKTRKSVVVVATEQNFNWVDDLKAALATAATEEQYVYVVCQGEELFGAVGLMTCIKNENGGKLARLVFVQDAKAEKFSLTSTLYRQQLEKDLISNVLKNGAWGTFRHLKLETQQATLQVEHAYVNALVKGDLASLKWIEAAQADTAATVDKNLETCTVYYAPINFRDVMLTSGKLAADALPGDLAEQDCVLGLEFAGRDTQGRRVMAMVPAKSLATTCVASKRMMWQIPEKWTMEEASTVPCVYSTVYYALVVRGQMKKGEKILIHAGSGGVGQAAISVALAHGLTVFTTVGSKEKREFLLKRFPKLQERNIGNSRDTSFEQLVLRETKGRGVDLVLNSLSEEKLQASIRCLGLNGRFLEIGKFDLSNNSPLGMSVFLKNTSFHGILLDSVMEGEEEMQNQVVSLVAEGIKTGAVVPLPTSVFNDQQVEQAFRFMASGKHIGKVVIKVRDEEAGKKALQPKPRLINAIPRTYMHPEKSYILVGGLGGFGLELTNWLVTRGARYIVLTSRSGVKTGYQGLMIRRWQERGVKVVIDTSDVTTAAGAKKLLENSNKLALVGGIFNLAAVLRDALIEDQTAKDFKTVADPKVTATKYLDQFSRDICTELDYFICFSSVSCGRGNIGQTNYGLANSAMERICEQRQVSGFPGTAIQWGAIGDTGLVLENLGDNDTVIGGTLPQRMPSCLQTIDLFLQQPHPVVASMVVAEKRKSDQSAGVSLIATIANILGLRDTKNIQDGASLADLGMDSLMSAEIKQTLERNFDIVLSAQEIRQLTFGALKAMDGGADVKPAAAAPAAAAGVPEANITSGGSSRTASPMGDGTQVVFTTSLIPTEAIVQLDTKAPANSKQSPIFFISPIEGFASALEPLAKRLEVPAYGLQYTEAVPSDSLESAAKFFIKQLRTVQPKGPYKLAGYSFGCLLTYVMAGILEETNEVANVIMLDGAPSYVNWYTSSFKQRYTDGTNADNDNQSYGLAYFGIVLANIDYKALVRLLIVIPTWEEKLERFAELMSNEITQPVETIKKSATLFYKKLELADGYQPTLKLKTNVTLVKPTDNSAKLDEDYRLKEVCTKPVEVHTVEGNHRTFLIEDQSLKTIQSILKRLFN

[2] = target: Fatty acid synthase (Mus musculus) (UniProt P19096); experiment: Inhibition of FASN in PINK1 (-/-) MEF assessed as rescue of mitochondrial dysfunction by measuring ATP levels by luminometry; type: cell-based
Fatty acid synthase (Mus musculus), sequence (P19096 whole entry): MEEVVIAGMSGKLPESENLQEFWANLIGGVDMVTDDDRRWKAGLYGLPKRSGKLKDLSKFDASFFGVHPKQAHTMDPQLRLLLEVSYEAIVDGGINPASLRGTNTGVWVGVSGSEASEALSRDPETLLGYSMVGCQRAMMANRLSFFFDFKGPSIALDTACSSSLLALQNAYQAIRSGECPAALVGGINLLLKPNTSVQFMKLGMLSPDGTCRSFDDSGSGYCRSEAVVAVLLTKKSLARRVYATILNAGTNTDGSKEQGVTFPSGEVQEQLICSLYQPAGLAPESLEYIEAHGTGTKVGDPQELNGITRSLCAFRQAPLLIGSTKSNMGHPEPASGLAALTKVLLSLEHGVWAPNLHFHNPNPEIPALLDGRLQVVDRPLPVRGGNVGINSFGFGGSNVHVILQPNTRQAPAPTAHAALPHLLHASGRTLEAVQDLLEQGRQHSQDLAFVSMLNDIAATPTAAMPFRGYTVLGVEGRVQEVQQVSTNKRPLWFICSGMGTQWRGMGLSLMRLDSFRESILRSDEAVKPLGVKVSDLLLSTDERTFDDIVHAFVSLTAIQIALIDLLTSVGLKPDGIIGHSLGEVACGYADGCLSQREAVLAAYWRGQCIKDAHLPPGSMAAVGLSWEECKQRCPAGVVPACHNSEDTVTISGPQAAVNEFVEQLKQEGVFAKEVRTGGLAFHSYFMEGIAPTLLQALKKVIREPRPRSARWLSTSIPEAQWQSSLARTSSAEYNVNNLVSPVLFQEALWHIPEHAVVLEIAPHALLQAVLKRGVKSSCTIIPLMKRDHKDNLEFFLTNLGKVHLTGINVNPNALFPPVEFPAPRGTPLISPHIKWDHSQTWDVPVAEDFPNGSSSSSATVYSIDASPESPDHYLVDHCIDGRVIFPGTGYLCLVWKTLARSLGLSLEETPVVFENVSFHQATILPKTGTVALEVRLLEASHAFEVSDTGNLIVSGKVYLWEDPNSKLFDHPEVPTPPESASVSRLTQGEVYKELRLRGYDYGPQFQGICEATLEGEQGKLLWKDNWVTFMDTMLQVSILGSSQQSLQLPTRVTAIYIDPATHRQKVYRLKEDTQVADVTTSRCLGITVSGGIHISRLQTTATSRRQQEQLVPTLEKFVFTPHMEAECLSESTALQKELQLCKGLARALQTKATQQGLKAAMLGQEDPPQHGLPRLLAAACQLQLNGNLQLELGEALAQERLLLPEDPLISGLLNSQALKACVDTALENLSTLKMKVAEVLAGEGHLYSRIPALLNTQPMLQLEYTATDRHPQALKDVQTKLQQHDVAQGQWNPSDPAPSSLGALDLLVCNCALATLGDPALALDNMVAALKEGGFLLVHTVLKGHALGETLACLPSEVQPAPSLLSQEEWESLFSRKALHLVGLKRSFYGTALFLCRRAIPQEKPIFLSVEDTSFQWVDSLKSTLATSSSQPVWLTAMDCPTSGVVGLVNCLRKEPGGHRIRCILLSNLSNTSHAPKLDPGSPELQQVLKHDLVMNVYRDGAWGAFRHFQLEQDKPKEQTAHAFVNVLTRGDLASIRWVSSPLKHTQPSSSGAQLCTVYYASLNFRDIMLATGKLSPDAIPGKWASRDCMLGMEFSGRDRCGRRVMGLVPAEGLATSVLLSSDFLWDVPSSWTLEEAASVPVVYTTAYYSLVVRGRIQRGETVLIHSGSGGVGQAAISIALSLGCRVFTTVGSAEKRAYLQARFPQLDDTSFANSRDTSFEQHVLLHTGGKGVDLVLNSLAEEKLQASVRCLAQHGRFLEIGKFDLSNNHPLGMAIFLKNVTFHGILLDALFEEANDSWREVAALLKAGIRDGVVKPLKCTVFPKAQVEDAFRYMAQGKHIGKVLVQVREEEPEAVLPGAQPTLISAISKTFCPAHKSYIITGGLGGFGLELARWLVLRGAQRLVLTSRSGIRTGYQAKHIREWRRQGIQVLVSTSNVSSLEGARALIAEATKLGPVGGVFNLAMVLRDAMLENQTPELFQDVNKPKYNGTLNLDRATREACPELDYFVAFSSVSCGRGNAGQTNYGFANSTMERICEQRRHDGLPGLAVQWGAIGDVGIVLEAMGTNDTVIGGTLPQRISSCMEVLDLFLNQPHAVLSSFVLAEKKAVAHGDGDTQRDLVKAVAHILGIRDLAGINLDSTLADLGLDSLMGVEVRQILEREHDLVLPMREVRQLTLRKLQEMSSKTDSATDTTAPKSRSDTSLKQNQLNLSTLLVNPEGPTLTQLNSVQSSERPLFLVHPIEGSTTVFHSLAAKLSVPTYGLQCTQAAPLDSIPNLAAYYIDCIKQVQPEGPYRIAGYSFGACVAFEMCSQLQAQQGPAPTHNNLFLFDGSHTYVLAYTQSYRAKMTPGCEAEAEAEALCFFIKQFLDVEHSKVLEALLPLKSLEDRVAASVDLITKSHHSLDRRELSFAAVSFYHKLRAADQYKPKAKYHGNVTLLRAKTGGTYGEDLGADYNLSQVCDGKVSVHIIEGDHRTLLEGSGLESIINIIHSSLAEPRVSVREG

[3] = target: 3-oxoacyl-[acyl-carrier-protein] reductase (Drosophila melanogaster) (UniProt B7Z001); experiment: Inhibition of FASN in one day old PINK1 mutant containing Drosophila melanogaster assessed as rescue of defective flight at 100 to 300 uM dosed with food incubated for 72 hrs; type: organism-based

| Compound | inhibition [1] | inhibition [2] | inhibition [3] |
| --- | --- | --- | --- |
| Oc1cc(Cl)ccc1Oc1ccc(Cl)cc1Cl | Dose-dependent effect | – | – |
| C/C=C/C/C=C/CCC(=O)[C@H]1O[C@H]1C(N)=O | – | Active | Dose-dependent effect |
